This is an account of results in ChEMBL document CHEMBL3124792, “Discovery and preclinical characterization of the cyclopropylindolobenzazepine BMS-791325, a potent allosteric inhibitor of the hepatitis C virus NS5B polymerase” (J Med Chem, 2014).

One data set concerns the target Cytochrome P450 3A4 (Homo sapiens, UniProt P08684). Description: Inhibition of CYP3A4 in human liver microsomes using benzyloxyresorufin as substrate after 30 mins in presence of NADPH. Format: ADME.
The target in the next data set is Cytochrome P450 2D6 (Homo sapiens, UniProt P10635). The data set can be described thus: Inhibition of CYP2D6 in human liver microsomes after 30 mins in presence of NADPH. The format is ADME.
In another data set the target is Cytochrome P450 2C19 (Homo sapiens, UniProt P33261). Description: Inhibition of CYP2C19 in human liver microsomes after 30 mins in presence of NADPH. Format: ADME. (Liver microsomes are vesicles of endoplasmic reticulum, rich in cytochrome P450 enzymes.)
In the next data set the target is Cytochrome P450 2C9 (Homo sapiens, UniProt P11712). Description: Inhibition of CYP2C9 in human liver microsomes after 30 mins in presence of NADPH. The format is ADME.
The next data set has as its target T1, Cytochrome P450 1A2 (Homo sapiens, UniProt P05177).
T1 sequence (P05177 whole entry): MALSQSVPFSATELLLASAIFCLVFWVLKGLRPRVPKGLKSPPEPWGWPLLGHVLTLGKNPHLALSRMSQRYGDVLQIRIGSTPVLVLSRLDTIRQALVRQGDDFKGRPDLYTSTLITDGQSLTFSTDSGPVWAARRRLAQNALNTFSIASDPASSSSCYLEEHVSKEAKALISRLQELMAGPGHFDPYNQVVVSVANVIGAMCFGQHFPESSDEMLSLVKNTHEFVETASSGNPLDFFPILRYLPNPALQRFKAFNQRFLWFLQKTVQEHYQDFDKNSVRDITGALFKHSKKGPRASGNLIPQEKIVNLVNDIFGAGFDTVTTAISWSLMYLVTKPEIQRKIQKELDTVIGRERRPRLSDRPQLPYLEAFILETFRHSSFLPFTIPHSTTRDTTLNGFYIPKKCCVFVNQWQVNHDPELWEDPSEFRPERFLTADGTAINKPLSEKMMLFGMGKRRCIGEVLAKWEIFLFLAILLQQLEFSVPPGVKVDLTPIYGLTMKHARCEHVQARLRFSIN
Description: Inhibition of CYP1A2 in human liver microsomes after 30 mins in presence of NADPH. The format is ADME.

In data set [1] the target is Sodium channel protein type 5 subunit alpha (Homo sapiens, UniProt Q14524). Description: Inhibition of human NaV1.5 expressed in HEK293 cells by fluorescence-based thallium flux assay. Format: cell-based.
The test system of a further data set is HepG2. Description: Cytotoxicity against human HepG2 cells. Format: cell-based.
Data set [2] has as its target Voltage-gated inwardly rectifying potassium channel KCNH2 (Homo sapiens, UniProt Q12809). Description: Inhibition of human ERG by fluorescence-based thallium flux assay.
Data set [3] can be described thus: Plasma concentration in rat at 10 mg/kg, po after 6 hrs. Format: ADME, organism-based. Also noted: dose 10 mg/kg, route oral.
Data set [4] is described as follows: Drug uptake in rat liver at 10 mg/kg, po after 6 hrs. Format: ADME, organism-based. Also noted: dose 10 mg/kg, route oral. As to conditions: read-out: Drug uptake.
Data set [5] is described as follows: AUC (0 to 6 hrs) in rat at 10 mg/kg, po. Also noted: time < 6 hr, dose 10 mg/kg, route oral. The format is ADME, organism-based. As to conditions: plasma.
Data set [6] is described as follows: Drug uptake in rat liver at 5 mg/kg, iv after 6 hrs. Format: ADME, organism-based. Also noted: dose 5 mg/kg, route intravenous. As to conditions: read-out: Drug uptake.
Data set [7] can be described thus: Plasma concentration in rat at 5 mg/kg, iv after 6 hrs. The format is ADME, organism-based. Also noted: dose 5 mg/kg, route intravenous.
Data set [8] can be described thus: Clearance in rat at 5 mg/kg, iv and 10 mg/kg, po. The format is ADME, organism-based. The following applies: in vivo.
Data set [9] in a line: AUC (0 to 6 hrs) in rat at 5 mg/kg, iv. The format is ADME, organism-based. Also noted: time < 6 hr, dose 5 mg/kg, route intravenous. As to conditions: plasma.
Data set [10] in a line: Solubility of the compound in amorphous form in phosphate buffer at pH 6.5. Format: physicochemical.
Data set [11] can be described thus: Permeability of the compound at pH 7.4 by PAMPA. Format: physicochemical. As to conditions: read-out: permeability. Background: PAMPA measures passive passage across an artificial lipid membrane.
Data set [12] addresses T2, Nuclear receptor subfamily 1 group I member 2 (Homo sapiens, UniProt O75469).
T2 sequence (O75469 whole entry): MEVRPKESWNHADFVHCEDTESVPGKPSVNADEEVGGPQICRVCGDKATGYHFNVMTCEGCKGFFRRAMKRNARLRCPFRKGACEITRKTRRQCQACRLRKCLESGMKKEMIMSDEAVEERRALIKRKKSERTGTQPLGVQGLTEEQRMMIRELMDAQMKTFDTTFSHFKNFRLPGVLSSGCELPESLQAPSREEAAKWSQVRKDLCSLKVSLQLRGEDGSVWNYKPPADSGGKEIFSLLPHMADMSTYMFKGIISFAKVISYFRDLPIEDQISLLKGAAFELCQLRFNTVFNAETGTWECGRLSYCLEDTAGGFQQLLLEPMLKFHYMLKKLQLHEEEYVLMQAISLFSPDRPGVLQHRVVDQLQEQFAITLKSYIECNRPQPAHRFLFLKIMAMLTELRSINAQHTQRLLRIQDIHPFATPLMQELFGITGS
The data set can be described thus: Transactivation of human PXR expressed in human HepG2 cells by luciferase reporter gene assay. Format: cell-based.

Data set [13] in a line: Cytotoxicity against human HuH7 cells by Alamar blue assay. The format is cell-based. As to conditions: Huh-7 cells.
Data set [14] relates to Hepatitis C virus. The data set can be described thus: Antiviral activity against Hepatitis C virus Con1 genotype 1b infected in human HuH7 cells after 3 days by FRET assay in presence of 40% human serum. The format is functional, organism-based, Hepacivirus hominis. The following applies: isolate Con1, Huh-7, 72 h.
Data set [15] concerns Hepatitis C virus. Description: Antiviral activity against Hepatitis C virus H77c genotype 1a infected in human HuH7 cells after 3 days by FRET assay. As to conditions: genotype 1a H77, Huh-7, 72 h. The format is functional, organism-based, Hepacivirus hominis.
The subject of data set [16] is Hepatitis C virus. Description: Antiviral activity against Hepatitis C virus Con1 genotype 1b infected in human HuH7 cells after 3 days by FRET assay. As to conditions: isolate Con1, Huh-7, 72 h. Format: functional, organism-based, Hepacivirus hominis.
The test system of data set [17] is Liver microsome. The following applies: human, microsomes.
Data set [18] deals with Liver microsome. As to conditions: rat, microsomes.
The next data set deals with T3, PXR (NR1I2) (Homo sapiens, UniProt O75469).
T3 sequence (O75469 whole entry): T2 sequence (O75469 whole entry)
The data set can be described thus: Transactivation of human PXR expressed in human HepG2 cells by luciferase reporter gene assay relative to control. Format: cell-based. The following applies: HepG2 cells expressing human PXR, read-out: %max.

For data set [19], the system named is Hepatitis C virus. Description: Ratio of EC50 for Hepatitis C virus Con1 genotype 1b in presence of 40% human serum to EC50 for Hepatitis C virus Con1 genotype 1b. Format: functional, Hepacivirus hominis, isolate Con1.

Values after ≈ are worked out from the molar mass of the structure shown.

Broadly, the EC50 is the concentration at which the effect is half-maximal. As usually defined, the AUC(0-t) is exposure summed from dosing to a finite time, without extrapolation to infinity. A low value points to low exposure. Broadly, the solubility is the concentration that dissolves in the medium under given conditions. A high value points to a readily soluble substance. The CC50 is the concentration giving 50% cytotoxicity. Low readings indicate harm at low concentration, high ones better tolerance by the cells.

Sequence of Cytochrome P450 2D6 (P10635 whole entry): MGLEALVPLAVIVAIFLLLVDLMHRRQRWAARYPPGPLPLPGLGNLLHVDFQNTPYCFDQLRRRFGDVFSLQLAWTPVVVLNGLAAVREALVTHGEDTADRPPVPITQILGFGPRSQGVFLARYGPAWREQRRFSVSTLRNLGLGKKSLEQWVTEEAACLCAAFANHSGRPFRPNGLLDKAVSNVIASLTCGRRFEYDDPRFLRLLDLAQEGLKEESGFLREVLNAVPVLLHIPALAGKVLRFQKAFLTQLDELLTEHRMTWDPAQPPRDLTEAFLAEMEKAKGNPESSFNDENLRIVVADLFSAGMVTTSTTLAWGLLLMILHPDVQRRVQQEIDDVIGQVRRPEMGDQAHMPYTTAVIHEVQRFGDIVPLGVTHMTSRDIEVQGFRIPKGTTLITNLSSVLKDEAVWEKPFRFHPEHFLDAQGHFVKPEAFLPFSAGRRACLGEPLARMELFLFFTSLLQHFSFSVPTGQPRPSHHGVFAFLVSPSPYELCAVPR
Sequence of Cytochrome P450 2C19 (P33261 whole entry): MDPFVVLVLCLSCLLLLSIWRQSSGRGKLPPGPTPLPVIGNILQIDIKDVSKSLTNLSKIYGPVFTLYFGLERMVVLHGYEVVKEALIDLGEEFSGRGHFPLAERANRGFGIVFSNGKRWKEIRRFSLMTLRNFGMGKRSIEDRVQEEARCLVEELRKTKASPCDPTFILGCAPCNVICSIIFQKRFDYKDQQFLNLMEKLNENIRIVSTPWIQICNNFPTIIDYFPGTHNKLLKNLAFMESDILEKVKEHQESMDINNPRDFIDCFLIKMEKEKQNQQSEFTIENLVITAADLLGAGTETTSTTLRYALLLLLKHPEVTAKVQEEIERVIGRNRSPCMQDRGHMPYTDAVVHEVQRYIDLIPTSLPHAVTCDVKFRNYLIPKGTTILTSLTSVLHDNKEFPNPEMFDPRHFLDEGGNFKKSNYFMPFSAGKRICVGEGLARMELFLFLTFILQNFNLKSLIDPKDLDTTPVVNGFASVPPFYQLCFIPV
Sequence of Cytochrome P450 2C9 (P11712 whole entry): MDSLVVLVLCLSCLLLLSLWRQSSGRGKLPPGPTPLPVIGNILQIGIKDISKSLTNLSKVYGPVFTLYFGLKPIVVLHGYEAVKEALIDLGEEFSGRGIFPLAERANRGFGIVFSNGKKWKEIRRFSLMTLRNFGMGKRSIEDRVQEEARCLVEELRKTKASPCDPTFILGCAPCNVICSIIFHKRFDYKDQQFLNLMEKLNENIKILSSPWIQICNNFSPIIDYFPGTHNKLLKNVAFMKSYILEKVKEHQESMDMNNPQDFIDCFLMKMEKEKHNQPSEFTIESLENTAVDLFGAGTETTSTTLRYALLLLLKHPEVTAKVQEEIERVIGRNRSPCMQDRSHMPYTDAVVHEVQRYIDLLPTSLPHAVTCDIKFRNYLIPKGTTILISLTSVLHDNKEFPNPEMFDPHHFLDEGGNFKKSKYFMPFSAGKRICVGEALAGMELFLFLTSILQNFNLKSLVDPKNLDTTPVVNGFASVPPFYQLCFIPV
Sequence of Cytochrome P450 3A4 (P08684 whole entry): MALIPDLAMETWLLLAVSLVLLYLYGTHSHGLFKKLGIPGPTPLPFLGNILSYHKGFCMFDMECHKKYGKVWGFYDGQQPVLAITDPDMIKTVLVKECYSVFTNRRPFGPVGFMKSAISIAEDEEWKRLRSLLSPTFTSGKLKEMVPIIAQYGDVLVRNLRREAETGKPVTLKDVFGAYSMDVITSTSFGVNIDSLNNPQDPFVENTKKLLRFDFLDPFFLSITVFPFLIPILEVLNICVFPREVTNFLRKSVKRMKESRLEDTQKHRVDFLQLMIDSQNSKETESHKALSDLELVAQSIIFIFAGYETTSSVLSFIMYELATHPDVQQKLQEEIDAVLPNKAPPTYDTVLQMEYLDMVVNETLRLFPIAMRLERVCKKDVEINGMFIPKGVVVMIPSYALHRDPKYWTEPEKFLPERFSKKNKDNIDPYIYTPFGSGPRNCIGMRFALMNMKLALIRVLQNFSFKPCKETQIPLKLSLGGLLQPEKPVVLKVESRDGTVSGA
Sequence of Voltage-gated inwardly rectifying potassium channel KCNH2 (Q12809 whole entry): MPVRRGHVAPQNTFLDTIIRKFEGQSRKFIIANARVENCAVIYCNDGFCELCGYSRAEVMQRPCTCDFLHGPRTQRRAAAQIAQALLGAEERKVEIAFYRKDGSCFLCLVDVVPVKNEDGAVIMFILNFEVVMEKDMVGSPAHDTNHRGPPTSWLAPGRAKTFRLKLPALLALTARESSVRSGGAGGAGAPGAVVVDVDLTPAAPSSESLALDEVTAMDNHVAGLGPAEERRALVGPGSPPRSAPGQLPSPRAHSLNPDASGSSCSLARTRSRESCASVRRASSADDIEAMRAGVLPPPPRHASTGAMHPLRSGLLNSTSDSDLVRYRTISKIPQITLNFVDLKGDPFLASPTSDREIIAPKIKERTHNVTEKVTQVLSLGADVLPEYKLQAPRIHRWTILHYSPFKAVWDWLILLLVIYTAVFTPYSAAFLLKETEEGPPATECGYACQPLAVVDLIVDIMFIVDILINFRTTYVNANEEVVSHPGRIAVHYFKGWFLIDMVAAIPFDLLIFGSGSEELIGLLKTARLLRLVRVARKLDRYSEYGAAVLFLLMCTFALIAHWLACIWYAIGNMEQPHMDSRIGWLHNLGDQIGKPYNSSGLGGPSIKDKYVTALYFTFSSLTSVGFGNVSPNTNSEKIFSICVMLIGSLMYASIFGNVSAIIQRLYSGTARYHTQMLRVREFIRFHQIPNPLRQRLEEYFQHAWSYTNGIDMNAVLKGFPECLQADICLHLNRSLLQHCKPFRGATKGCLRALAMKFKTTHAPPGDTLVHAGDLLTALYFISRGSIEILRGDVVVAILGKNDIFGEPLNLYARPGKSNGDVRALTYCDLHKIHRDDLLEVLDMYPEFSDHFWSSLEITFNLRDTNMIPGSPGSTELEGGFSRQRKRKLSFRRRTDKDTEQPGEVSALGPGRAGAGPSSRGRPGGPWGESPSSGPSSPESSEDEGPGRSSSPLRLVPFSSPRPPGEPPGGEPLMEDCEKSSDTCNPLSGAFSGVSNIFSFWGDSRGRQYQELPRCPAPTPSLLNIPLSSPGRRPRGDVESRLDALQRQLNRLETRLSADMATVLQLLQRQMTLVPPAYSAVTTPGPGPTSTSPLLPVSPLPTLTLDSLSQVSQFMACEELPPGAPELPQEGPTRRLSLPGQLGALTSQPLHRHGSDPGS

In the case of `COc1ccc2c(c1)[C@@H]1C[C@]1(C(=O)N1C3CC1CN(C)C3)Cn1c-2c(C2CCCCC2)c2ccc(C(=O)NS(=O)(=O)N(C)C)cc21`, the EC50 at Cytochrome P450 3A4 is 14 µM; on Cytochrome P450 2D6 it was over 40 µM; on Cytochrome P450 2C19, over 40 µM; on Cytochrome P450 2C9 it was over 40 µM; on Cytochrome P450 1A2, over 40 µM; in data set [1] it was 30 µM. In addition, the EC50 was 25 µM with HepG2; 20 µM in data set [2]; over 50 µM in data set [12]; 0.028 µM with Hepatitis C virus [14]; 0.006 µM in the data set with Hepatitis C virus [15]; 0.005 µM in the data set on Hepatitis C virus [16]. Besides, the concentration at 6 h came to 0.44 µM in data set [3], 14.3 µM in [4], 17.5 µM in data set [6] and 0.409 µM in data set [7]. The AUC(0-t) at 6 h was 4.93 µM·h in data set [5] and 11.2 µM·h in data set [9]. Also, in data set [8], the clearance came to 9 mL/min/kg. In data set [10], this molecule had a solubility of 760 µg/mL (≈ 1180 µM). Besides, the Papp in data set [11] amounted to 43 ×10⁻⁶ cm/s. This molecule also had a CC50 in [13] of 13 µM. In addition, the Stability in the data set with Liver microsome [17] and in the data set with Liver microsome [18] was 98% in each case.

For the molecule `COC[C@H]1CN(C(=O)[C@]23C[C@H]2c2cc(OC)ccc2-c2c(C4CCCCC4)c4ccc(C(=O)NS(=O)(=O)N(C)C)cc4n2C3)CCO1`, at PXR (NR1I2), the Emax came out at 12%. Besides, the EC50 is over 50 µM in data set [12], 0.036 µM in the data set with Hepatitis C virus [14], 0.006 µM in the data set on Hepatitis C virus [15] and 0.012 µM in the data set on Hepatitis C virus [16]. Also, the “Ratio EC50” value in the data set with Hepatitis C virus [19] is 3. Moreover, the CC50 in data set [13] was over 10 µM.
